Experimental findings from patent US6150385A, “1,3,4-thiadiazoles useful for the treatment of CMV infections” (Pharmacia & Upjohn Company, priority 1999, dated 2000) are described below.

Each structure is given as a SMILES string.

T1 sequence (P08546 whole entry): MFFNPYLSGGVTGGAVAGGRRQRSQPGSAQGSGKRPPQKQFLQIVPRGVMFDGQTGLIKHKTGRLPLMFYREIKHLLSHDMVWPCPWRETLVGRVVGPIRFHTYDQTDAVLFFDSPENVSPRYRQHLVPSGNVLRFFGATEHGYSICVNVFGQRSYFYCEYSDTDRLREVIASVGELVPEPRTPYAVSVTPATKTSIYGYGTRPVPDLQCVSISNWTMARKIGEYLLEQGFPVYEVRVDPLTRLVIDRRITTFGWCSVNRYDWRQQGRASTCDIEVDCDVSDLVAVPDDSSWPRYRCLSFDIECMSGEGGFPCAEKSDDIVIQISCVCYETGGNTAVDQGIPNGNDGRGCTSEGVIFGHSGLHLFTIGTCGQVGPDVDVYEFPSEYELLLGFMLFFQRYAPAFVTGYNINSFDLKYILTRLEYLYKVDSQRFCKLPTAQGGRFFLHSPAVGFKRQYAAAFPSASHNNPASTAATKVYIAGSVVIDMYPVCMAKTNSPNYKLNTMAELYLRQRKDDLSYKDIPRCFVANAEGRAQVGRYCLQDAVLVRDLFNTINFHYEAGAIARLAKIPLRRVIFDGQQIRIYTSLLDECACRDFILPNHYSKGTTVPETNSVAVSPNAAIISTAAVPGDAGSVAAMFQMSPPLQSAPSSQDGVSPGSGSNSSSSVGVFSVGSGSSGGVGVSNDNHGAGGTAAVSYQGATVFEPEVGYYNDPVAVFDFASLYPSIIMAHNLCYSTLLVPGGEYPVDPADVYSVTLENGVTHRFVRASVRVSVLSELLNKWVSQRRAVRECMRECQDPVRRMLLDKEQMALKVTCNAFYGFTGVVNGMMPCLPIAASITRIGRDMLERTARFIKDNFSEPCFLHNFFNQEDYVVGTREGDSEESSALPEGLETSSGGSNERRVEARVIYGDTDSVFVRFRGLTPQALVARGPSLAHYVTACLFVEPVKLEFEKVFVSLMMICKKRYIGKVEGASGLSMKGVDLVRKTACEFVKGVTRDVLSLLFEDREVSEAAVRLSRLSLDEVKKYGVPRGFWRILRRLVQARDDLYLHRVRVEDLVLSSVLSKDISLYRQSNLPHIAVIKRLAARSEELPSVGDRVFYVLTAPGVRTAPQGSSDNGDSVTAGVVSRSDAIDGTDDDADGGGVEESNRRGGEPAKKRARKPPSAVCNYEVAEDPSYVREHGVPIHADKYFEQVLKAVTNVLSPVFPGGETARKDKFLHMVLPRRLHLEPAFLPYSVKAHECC

The experiment has as its target T1, HCMV polymerase (Human cytomegalovirus, UniProt P08546).
T1 construct: made in house; host or cells: SF-9 insect cells infected with recombinant baculovirus
The experiment in a line: HCMV polymerase assay (scintillation proximity assay). It is filed as biochemical. To be noted: percentage of inhibition at 25 μM concentration in CMV polymerase assay. The procedure, abridged: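 Values are percent inhibition at 25 μM, measured by scintillation proximity after capture of biotinylated poly(dA)-oligo(dT) (6 nM) extended with 90 nM 3H-dTTP. Recombinant SF-9-derived enzyme reacted 30 min at 25 or 37 °C in HEPES pH 7.5/KCl/MgCl2/BSA buffer, ±2 mM CHAPS, before EDTA termination.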
Take `O=C(Nc1nnc(NCCc2cccs2)s1)c1cc2ccccc2s1` [compound 234, N-(5-{[2-(2-thienyl)ethyl]amino}-1,3,4-thiadiazol-2-yl)-1-benzothiophene-2-carboxamide]: testing at 25 µM gave an inhibition of 42%.

`O=C(Nc1nnc(NCc2cccs2)s1)c1ccc(I)cc1` [compound 425, 4-iodo-N-{5-[(2-thienylmethyl)amino]-1,3,4-thiadiazol-2-yl}benzamide]: the inhibition (commonly the change of the read-out against control, counted positive when it falls) at 25 µM was 23.5%.

As to `O=C(Nc1nnc(NCCNc2ccccc2)s1)c1c(Cl)cccc1Cl` [compound 438, N-{5-[(2-anilinoethyl)amino]-1,3,4-thiadiazol-2-yl}-2,6-dichlorobenzamide], the inhibition at 25 µM stood at 22.6%.

Consider `O=C(Nc1nnc(NCCCCc2ccccc2)s1)c1cc(F)cc(F)c1` [compound 373, 3,5-difluoro-N-{5-[(4-phenylbutyl)amino]-1,3,4-thiadiazol-2-yl}benzamide], for which the inhibition at 25 µM was 28.1%.

`CCCCCCCC/C=C/CCCCCCCC(=O)Nc1nnc(NCc2ccco2)s1` [compound 238, (E)-N-{5-[(2-furylmethyl)amino]-1,3,4-thiadiazol-2-yl}-9-octadecenamide]: the inhibition at 25 µM stood at 41.5%.

The molecule `O=C(Nc1nnc(NCCC(c2ccccc2)c2ccccc2)s1)c1ccc(F)cc1F` [compound 243, N-{5-[(3,3-diphenylpropyl)amino]-1,3,4-thiadiazol-2-yl}-2,4-difluorobenzamide] displayed an inhibition at 25 µM of 41.1%.

With `O=C(/C=C/c1ccccc1)Nc1nnc(NC2CCN(Cc3ccccc3)CC2)s1` [compound 290, (E)-N-{5-[(1-benzyl-4-piperidinyl)amino]-1,3,4-thiadiazol-2-yl}-3-phenyl-2-propenamide], the inhibition at 25 µM turned out to be 35.9%.

The molecule `O=C(Nc1nnc(NC2CCc3ccccc32)s1)c1cccc([N+](=O)[O-])c1` (centres unmarked) [compound 355, N-[5-(2,3-dihydro-1H-inden-1-ylamino)-1,3,4-thiadiazol-2-yl]-3-nitrobenzamide] had an inhibition at 25 µM of 29.8%.

The molecule `CC(C)c1cc(C(C)C)c(C(=O)Nc2nnc(NCCC#N)s2)c(C(C)C)c1` [compound 435, N-{5-[(2-cyanoethyl)amino]-1,3,4-thiadiazol-2-yl}-2,4,6-triisopropylbenzamide] showed an inhibition at 25 µM of 22.8%.

In turn, `CCCCCCCCCCCNc1nnc(NC(=O)/C=C/c2ccccc2Cl)s1` [compound 216, (E)-3-(2-chlorophenyl)-N-[5-(undecylamino)-1,3,4-thiadiazol-2-yl]-2-propenamide] registered an inhibition at 25 µM of 43.9%.

`CCOc1ccc2ccccc2c1C(=O)Nc1nnc(NC2CCN(Cc3ccccc3)CC2)s1` [compound 45, N-{5-[(1-benzyl-4-piperidinyl)amino]-1,3,4-thiadiazol-2-yl}-2-ethoxy-1-naphthamide] registered an inhibition at 25 µM of 83.1%.

On to `CCOc1ccc2ccccc2c1C(=O)Nc1nnc(NCCSc2ccccc2)s1` [compound 206, 2-ethoxy-N-(5-{[2-(phenylsulfanyl)ethyl]amino}-1,3,4-thiadiazol-2-yl)-1-naphthamide], for which the inhibition at 25 µM was 44.9%.

The molecule `O=C(Nc1nnc(NCc2cccc3ccccc23)s1)c1ccc2c(c1)C(=O)OC2=O` [compound 8, N-{5-[(1-naphthylmethyl)amino]-1,3,4-thiadiazol-2-yl}-1,3-dioxo-1,3-dihydro-2-benzofuran-5-carboxamide] showed an inhibition at 25 µM of 99.8%.

`O=C(CCCCCl)Nc1nnc(NCCSc2ccccc2)s1` [compound 254, 5-chloro-N-(5-{[2-(phenylsulfanyl)ethyl]amino]-1,3,4-thiadiazol-2-yl)pentanamide]: the inhibition at 25 µM is 40%.

In turn, `O=C(Nc1nnc(NCCc2ccccc2)s1)c1cc(F)cc(F)c1` [compound 437, 3,5-difluoro-N-[5-(phenethylamino)-1,3,4-thiadiazol-2-yl]benzamide] displayed an inhibition at 25 µM of 22.7%.

`O=C(Nc1nnc(NCC2CCCCC2)s1)c1ccc(F)cc1F` [compound 433, N-{5-[(cyclohexylmethyl)amino]-1,3,4-thiadiazol-2-yl}-2,4-difluorobenzamide] came in with an inhibition at 25 µM of 22.9%.

As to `COc1ccccc1C(=O)Nc1nnc(NCCc2ccccc2)s1` [compound 327, 2-methoxy-N-[5-(phenethylamino)-1,3,4-thiadiazol-2-yl]benzamide], 25 µM produced 32.5% inhibition.

`O=C(/C=C/c1ccccc1)Nc1nnc(NCc2ccc3c(c2)OCO3)s1` [compound 178, (E)-N-{5-[(1,3-benzodioxol-5-ylmethyl)amino]-1,3,4-thiadiazol-2-yl}-3-phenyl-2-propenamide] registered an inhibition at 25 µM of 49%.

For `CC(C)c1cc(C(C)C)c(C(=O)Nc2nnc(NCCCn3ccnc3)s2)c(C(C)C)c1` [compound 87, N-(5-{[3-(1H-imidazol-1-yl)propyl]amino}-1,3,4-thiadiazol-2-yl)-2,4,6-triisopropylbenzamide], the inhibition at 25 µM stood at 67%.

Molecule `O=C(Nc1nnc(NCCNc2ccccc2)s1)c1ccc2c(c1)C(=O)OC2=O` [compound 6, N-{5-[(2-anilinoethyl)amino]-1,3,4-thiadiazol-2-yl}-1,3-dioxo-1,3-dihydro-2-benzofuran-5-carboxamide] showed an inhibition at 25 µM of 99.9%.

Turning to `CCSCCNc1nnc(NC(=O)c2ccc(C(F)(F)F)cc2)s1` [compound 406, N-(5-{[2-(ethylsulfanyl)ethyl]amino}-1,3,4-thiadiazol-2-yl)-4-(trifluoromethyl)benzamide], at 25 µM the inhibition was 25%.

`CCOc1ccc2ccccc2c1C(=O)Nc1nnc(NCc2ccc(OC)c(OC)c2)s1` [compound 122, N-{5-[(3,4-dimethoxybenzyl)amino]-1,3,4-thiadiazol-2-yl}-2-ethoxy-1-naphthamide] had an inhibition at 25 µM of 59.5%.

In turn, `O=C(Nc1nnc(NCc2cccc3ccccc23)s1)c1ccc(F)cc1F` [compound 363, 2,4-difluoro-N-{5-[(1-naphthylmethyl)amino]-1,3,4-thiadiazol-2-yl}benzamide] showed an inhibition at 25 µM of 28.8%.

In the case of `O=C(Nc1nnc(NCCc2c[nH]c3ccccc23)s1)c1ccc(Br)cc1` [compound 351, 4-bromo-N-(5-{[2-(1H-indol-3-yl)ethyl]amino}-1,3,4-thiadiazol-2-yl)benzamide], the inhibition at 25 µM is 30.3%.

The molecule `O=C(CCCCCl)Nc1nnc(NCCc2c[nH]c3ccccc23)s1` [compound 346, 5-chloro-N-(5-{[2-(1H-indol-3-yl)ethyl]amino}-1,3,4-thiadiazol-2-yl)pentanamide] returned an inhibition at 25 µM of 30.7%.

As to `O=C(Nc1nnc(NCc2ccc3c(c2)OCO3)s1)c1ccc2c(c1)C(=O)OC2=O` [compound 20, N-{5-[(1,3-benzodioxol-5-ylmethyl)amino]-1,3,4-thiadiazol-2-yl}-1,3-dioxo-1,3-dihydro-2-benzofuran-5-carboxamide], 25 µM produced 97.7% inhibition.

For `O=C(Nc1nnc(NCCc2ccccc2)s1)c1ccc2c(c1)C(=O)OC2=O` [compound 24, 1,3-dioxo-N-[5-(phenethylamino)-1,3,4-thiadiazol-2-yl]-1,3-dihydro-2-benzofuran-5-carboxamide], testing at 25 µM gave an inhibition of 95.6%.

Take `O=C(Nc1nnc(NCCN2CCOCC2)s1)c1cc2ccccc2s1` [compound 453, N-{5-[(2-morpholinoethyl)amino]-1,3,4-thiadiazol-2-yl}-1-benzothiophene-2-carboxamide]: the inhibition at 25 µM worked out at 21.2%.

`O=C(Nc1nnc(NCCC(c2ccccc2)c2ccccc2)s1)c1cc2ccccc2s1` [compound 277, N-{5-[(3,3-diphenylpropyl)amino]-1,3,4-thiadiazol-2-yl}-1-benzothiophene-2-carboxamide] registered an inhibition at 25 µM of 37.9%.

The molecule `CCCCCCCC/C=C/CCCCCCCC(=O)Nc1nnc(NC2CCc3ccccc32)s1` (centres unmarked) [compound 279, (E)-N-[5-(2,3-dihydro-1H-inden-1-ylamino)-1,3,4-thiadiazol-2-yl]-9-octadecenamide] had an inhibition at 25 µM of 37.4%.

The molecule `O=C(/C=C/c1ccccc1)Nc1nnc(NCCN2CCCC2)s1` [compound 432, (E)-3-phenyl-N-(5-{[2-(1-pyrrolidinyl)ethyl]amino}-1,3,4-thiadiazol-2-yl)-2-propenamide] returned an inhibition at 25 µM of 23%.

Molecule `O=C(Nc1nnc(NCC(c2ccccc2)c2ccccc2)s1)c1ccc(F)cc1F` [compound 182, N-{5-[(2,2-diphenylethyl)amino]-1,3,4-thiadiazol-2-yl}-2,4-difluorobenzamide] had an inhibition at 25 µM of 48.2%.

As to `O=C(Nc1nnc(NCCC(c2ccccc2)c2ccccc2)s1)c1c(Cl)cccc1Cl` [compound 63, 2,6-dichloro-N-{5-[(3,3-diphenylpropyl)amino]1,3,4-thiadiazol-2-yl}benzamide], the inhibition at 25 µM was 73.8%.

`COc1ccccc1C(=O)Nc1nnc(NCc2ccc(Cl)c(Cl)c2)s1` [compound 452, N-{5-[(3,4-dichlorobenzyl)amino]-1,3,4-thiadiazol-2-yl}-2-methoxybenzamide] registered an inhibition at 25 µM of 21.3%.

On to `O=C(/C=C/c1ccccc1Cl)Nc1nnc(NC2CCCc3ccccc32)s1` (centres unmarked) [compound 374, (E)-3-(2-chlorophenyl)-N-[5-(1,2,3,4-tetrahydro-1-naphthalenylamino)-1,3,4-thiadiazol-2-yl]-2-propenamide], for which testing at 25 µM gave an inhibition of 28.1%.

With `O=C(Nc1nnc(NCc2cccnc2)s1)c1cc2ccccc2s1` [compound 301, N-{5-[(3-pyridinylmethyl)amino]-1,3,4-thiadiazol-2-yl}-1-benzothiophene-2-carboxamide], 25 µM produced 34.8% inhibition.

`O=C(Nc1nnc(NCCCNC2CCCCC2)s1)c1ccc(C(F)(F)F)cc1` [compound 112, N-(5-{[3-(cyclohexylamino)propyl]amino}-1,3,4-thiadiazol-2-yl)-4-(trifluoromethyl)benzamide] yielded an inhibition at 25 µM of 62.5%.

Regarding `COc1ccccc1C(=O)Nc1nnc(NCc2cccc3ccccc23)s1` [compound 334, 2-methoxy-N-{5-[(1-naphthylmethyl)amino]-1,3,4-thiadiazol-2-yl}benzamide], the inhibition at 25 µM was determined as 31.8%.
